Results from ChEMBL document CHEMBL1201862, “PubChem BioAssay data set” (2004).
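Grown in 96-well plates, cells were treated for 48 hours with each compound at five concentrations. Insufficient inhibition: endpoint recorded as highest concentration tested. The concentration for 50% growth inhibition is given as GI50.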 Active and inactive are the calls of the source. Rule as the data show it: active = GI50 up to about 1.1 µM and inactive = higher.

Key:
Experiment in all cases: NCI anticancer screen, dose series, 48 h
LXFL 529 = system: LXFL 529
DMS-273 = system: DMS-273
SNB-78 = system: SNB-78
M19-MEL = system: M19-MEL
XF498 = system: XF498
KM-20L2 = system: KM-20L2
DLD-1 = system: DLD-1
HOP-18 = system: HOP-18
RXF 631 = system: RXF 631

Structure (SMILES)	GI50 (LXFL 529)	GI50 (DMS-273)	GI50 (SNB-78)	GI50 (M19-MEL)	GI50 (XF498)	GI50 (KM-20L2)	GI50 (DLD-1)	GI50 (HOP-18)	GI50 (RXF 631)
O=C1NC2C(=CC(O)C(O)C2O)c2cc3c(cc21)OCO3 (stereo not drawn)	0.43 µM (active)	0.436 µM (active)	0.569 µM (active)	0.251 µM (active)	0.171 µM (active)	0.305 µM (active)	0.255 µM (active)	1.48 µM (inactive)	0.433 µM (active)
Cc1ccc2c(C)c3ccc4ccccc4c3c[n+]2c1.[O-][Cl+3]([O-])([O-])[O-]	9.1 µM (inactive)	11.5 µM (inactive)	41.4 µM (inactive)	4.88 µM (inactive)		33.3 µM (inactive)	37.8 µM (inactive)	12.4 µM (inactive)	
COC(=O)C(/C(=N/N)C(=O)Nc1cc(Cl)ccc1Cl)c1nc2ccc([N+](=O)[O-])cc2nc1O (stereo not drawn)	48 µM (inactive)	57.3 µM (inactive)	> 100 µM (inactive)		> 100 µM (inactive)	49.9 µM (inactive)			
O=c1[nH]nc2ccccc2c1Cc1ccccc1		> 100 µM (inactive)	> 100 µM (inactive)	> 100 µM (inactive)	> 100 µM (inactive)	> 100 µM (inactive)	> 100 µM (inactive)	> 100 µM (inactive)	
CC(=O)C1C(=O)N(C(C)C)C[C@@H]2CCC(=O)C[C@H]12 (stereo partly drawn)	> 100 µM (inactive)	> 100 µM (inactive)	> 100 µM (inactive)	> 100 µM (inactive)	> 100 µM (inactive)		> 100 µM (inactive)		> 100 µM (inactive)
CCN(N=O)C1C2(CCCC2)NC(=O)C12CCCC2 (stereo not drawn)	> 100 µM (inactive)		> 100 µM (inactive)	> 100 µM (inactive)	> 100 µM (inactive)	> 100 µM (inactive)	> 100 µM (inactive)	> 100 µM (inactive)	> 100 µM (inactive)
CCOC(=O)c1nc2ccc(Cl)cc2c2c1CCO2	51.4 µM (inactive)	> 100 µM (inactive)	> 100 µM (inactive)	> 100 µM (inactive)	72.8 µM (inactive)	> 100 µM (inactive)	> 100 µM (inactive)	23.6 µM (inactive)	
CC(C)C1CCC/C=C/C=C/C=C/C=C/C(OC2OC(C)C(O)C(N)C2O)CC2OC(O)(CC(O)CC(O)C(O)CCC(=O)O1)CC(O)C2C(=O)O (stereo not drawn)	> 52.5 µM (inactive)		> 52.5 µM (inactive)	> 52.5 µM (inactive)		> 52.5 µM (inactive)		> 52.5 µM (inactive)	
C=CNC(=O)NC(=O)CSc1nc(=O)c(-c2ccccc2NC(=O)C(F)(F)F)n[nH]1	> 100 µM (inactive)	43.9 µM (inactive)	25.2 µM (inactive)	> 100 µM (inactive)	33.9 µM (inactive)		2.81 µM (inactive)		
Cc1c2n(c(=O)[nH]c1=O)C1OC(CO)C(O2)C1O (stereo not drawn)	> 100 µM (inactive)	> 100 µM (inactive)	> 100 µM (inactive)	> 100 µM (inactive)		> 100 µM (inactive)	> 100 µM (inactive)		
O=C(c1ccc(Cl)cc1)N(C(=S)N1CCN(c2ccccn2)CC1)C1CCCCC1	75.7 µM (inactive)	34.3 µM (inactive)	> 100 µM (inactive)	> 100 µM (inactive)	8.26 µM (inactive)	74.1 µM (inactive)	81.7 µM (inactive)	> 100 µM (inactive)	
CCc1c(Cc2[nH]c(Cc3[nH]c(C=O)c(C)c3CC)c(CC)c2CC)[nH]c(C=O)c1C	> 100 µM (inactive)	> 100 µM (inactive)	> 100 µM (inactive)	> 100 µM (inactive)	> 100 µM (inactive)	> 100 µM (inactive)	> 100 µM (inactive)	> 100 µM (inactive)	
O=C(O)c1ccccc1/N=N/c1ccc2oc(=O)c(C(=O)Nc3ccccc3)cc2c1		39 µM (inactive)		33.3 µM (inactive)	45.8 µM (inactive)	24.8 µM (inactive)	40.9 µM (inactive)	30.1 µM (inactive)	
COC(=O)Cc1cc(=O)oc2c1C(=O)CCC2	> 100 µM (inactive)	> 100 µM (inactive)	> 100 µM (inactive)	> 100 µM (inactive)	> 100 µM (inactive)	> 100 µM (inactive)	> 100 µM (inactive)		
Nc1cc(O)nc(SC2=NC(N)CC(O)C2)n1 (stereo not drawn)	> 100 µM (inactive)	> 100 µM (inactive)	> 100 µM (inactive)	> 100 µM (inactive)	> 100 µM (inactive)	> 100 µM (inactive)	> 100 µM (inactive)	> 100 µM (inactive)	
CCCN(CCCN)/[N+]([O-])=N\O	> 100 µM (inactive)	> 100 µM (inactive)	> 100 µM (inactive)	> 100 µM (inactive)		0.4 µM (active)	> 100 µM (inactive)	> 100 µM (inactive)	> 100 µM (inactive)
C[S+](C)CCOC(=O)C(=[N+]=[N-])c1ccc([N+](=O)[O-])cc1	> 100 µM (inactive)	> 100 µM (inactive)	> 100 µM (inactive)	> 100 µM (inactive)	> 100 µM (inactive)	> 100 µM (inactive)		> 100 µM (inactive)	> 100 µM (inactive)
COC1(OC)C(N(C)C)=C(Cl)C(=O)/C1=C/C=O	> 100 µM (inactive)	> 100 µM (inactive)		74.6 µM (inactive)		> 100 µM (inactive)	> 100 µM (inactive)	> 100 µM (inactive)	
O=C1c2ccccc2C(=O)c2sc(Nc3ccc([N+](=O)[O-])cc3)nc21	1.66 µM (inactive)	7.69 µM (inactive)	10 µM (inactive)	1.55 µM (inactive)	2.17 µM (inactive)	22.7 µM (inactive)	4.19 µM (inactive)	4.33 µM (inactive)	19.5 µM (inactive)
COC1OC(C)C(O)CC1OS(=O)(=O)c1ccc(C)cc1 (stereo not drawn)	> 100 µM (inactive)	> 100 µM (inactive)	> 100 µM (inactive)	> 100 µM (inactive)		> 100 µM (inactive)		> 100 µM (inactive)	
CC(C)(C)c1cc(C(P(=O)(O)O)P(=O)(O)O)cc(C(C)(C)C)c1O	> 100 µM (inactive)	> 100 µM (inactive)	> 100 µM (inactive)	> 100 µM (inactive)		> 100 µM (inactive)	> 100 µM (inactive)	> 100 µM (inactive)	
Nc1ccn(C2(CO)C=C(CO)C(O)C2O)c(=O)n1 (stereo not drawn)	> 25.8 µM (inactive)	> 25.8 µM (inactive)	> 25.8 µM (inactive)	> 25.8 µM (inactive)		> 25.8 µM (inactive)	> 25.8 µM (inactive)	> 25.8 µM (inactive)	
COc1cc(O)c2c(c1)C(=O)C1=C(C2=O)C(O)C[C@@](C)(O)C1 (stereo partly drawn)	0.582 µM (active)	1.57 µM (inactive)	1.9 µM (inactive)	0.452 µM (active)	1.9 µM (inactive)	3.36 µM (inactive)	0.229 µM (active)		
